# Test results taken from patent US4021434A, “Sodium β-[2,6-dimethyl-3,5-bis(ethoxycarbonyl)-4-(3-nitrophenyl)-1,4-dihyd ropyridine-1-yl]ethyl sulfate” (Yamanouchi Pharmaceutical Co., Ltd., priority 1972, dated 1977).
# Assays:
# [1] = test system: mice; assay: in vivo; format: in vivo
# [2] = test system: cerebral circulation; assay: Effect on cerebral circulation in dogs anesthetized by chloralose-urethane (Experiment 1, Table I); format: in vivo
# [3] = Water-solubility
# [4] = in vivo; format: in vivo; settings: mouse, in vivo, mice
# [5] = Effects on MBP and partial oxygen pressure (PO2) in coronary venous blood, intra-duodenal administration (Experiment 4, Table 4)
# Method: (§1) Antagonism against hypertensive action of norepinephrine and effects on MBP and partial oxygen pressure (referred to hereinafter as PO2) in coronary venous blood, in case of intra-duodenal administration:
# (§2) By using dogs anesthetized by pentobarbital, blood pressure at the femoral artery was measured. […] Antagonism against hypertensive active in case of norepinephrine administration (3g/kg i.v.) was investigated also. Drugs were administered intra-duodenally.
# [6] = test system: partial oxygen pressure in coronary venous blood; assay: as above
# Method: as §1, §2
# [7] = test system: vertebral blood flow and coronary blood flow; assay: Effects on mean blood pressure, vertebral blood flow and coronary blood flow, intravenous, dogs anesthetized with pentobarbital (Experiment 3, Table 3); format: in vivo
# Method: Effects on mean blood pressure (hereinafter referred to as MBP), vertebral blood flow (hereinafter referred to as VBF) and coronary blood flow (hereinafter referred to as Cor.BF), when administered intravenously:
# By using dogs anesthetized with pentobarbital, VBF and Cor. BF were measured with an electromagnetic flowmeter. Blood pressure at the femoral artery was measured.
# [8] = test system: hypertensive action of norepinephrine; assay: Antagonism against hypertensive action of norepinephrine, intra-duodenal administration (Experiment 4, Table 5); format: in vivo, dogs
# Method: Drugs were administered intra-duodenally.
# [9] = physchem; settings: water
# [10] = 1 mg/kg i.d., Pre-administration (baseline)
# [11] = 1 mg/kg i.d., 1/2 hour post-administration
# [12] = 1 mg/kg i.d., 1 hour post-administration
# [13] = 1 mg/kg i.d., 2 hour post-administration
# [14] = 1 mg/kg i.d., 3 hour post-administration
# [15] = 1 mg/kg i.d., 5 hour post-administration
# [16] = 1 mg/kg i.d., 8 hour post-administration
# [17] = 10 mg/kg i.d., Pre-administration (baseline)
# [18] = 10 mg/kg i.d., 1/2 hour post-administration
# [19] = 10 mg/kg i.d., 1 hour post-administration
# [20] = 10 mg/kg i.d., 2 hour post-administration
# [21] = 10 mg/kg i.d., 3 hour post-administration
# [22] = 10 mg/kg i.d., 5 hour post-administration
# [23] = 10 mg/kg i.d., 8 hour post-administration
smiles,measurement,setting,value
"CCOCN1C(C)=C(C(=O)OCC)C(c2cccc([N+](=O)[O-])c2)C(C(=O)OCC)=C1C [A, diethyl 1-ethoxymethyl-2,6-dimethyl-4-(3-nitrophenyl)-1,4-dihydropyridine-3,5-dicarboxylate]",MLD (Minimum lethal dose),[1]; i.p.,> 3000 mg/kg
same,MLD (Minimum lethal dose),[1]; p.o.,> 5000 mg/kg
same,Carotid blood flow Duration,[2]; 0.1 mg/Kg i.v.,120 min
same,Carotid blood flow Increase,[2]; 0.1 mg/Kg i.v.,80%
same,Mean Blood Pressure Decrease,[2]; 0.1 mg/Kg i.v.,9%
same,Regional Cerebral blood flow Duration,[2]; 0.1 mg/Kg i.v.,120 min
same,Regional Cerebral blood flow Increase,[2]; 0.1 mg/Kg i.v.,8.6 μV
same,Vertebral Blood Flow Increase,[2]; 0.1 mg/Kg i.v.,120%
same,Vertebral blood flow Duration,[2]; 0.1 mg/Kg i.v.,100 min
CCOC(=O)C1=C(C)NC(C)=C(C(=O)OCC)C1c1cccc([N+](=O)[O-])c1 [B],water-solubility (in words),[3],almost unsoluble in water
same,LD50,[4]; ip,525 mg/kg
same,LD50,[4]; po,5000 mg/kg
same,MBP,[5]; [10],101
same,MBP,"[5]; 1 mg/kg i.d., change, 1/2 hour post-administration",-39
same,MBP,"[5]; 1 mg/kg i.d., change, 1 hour post-administration",-43
same,MBP,"[5]; 1 mg/kg i.d., change, 2 hour post-administration",-42
same,MBP,"[5]; 1 mg/kg i.d., change, 3 hour post-administration",-32
same,MBP,"[5]; 1 mg/kg i.d., change, 5 hour post-administration",-27
same,MBP,"[5]; 1 mg/kg i.d., change, 8 hour post-administration",-12
same,PO2 in coronary venous blood,[6]; [11],34.6
same,PO2 in coronary venous blood,[6]; [12],37.7
same,PO2 in coronary venous blood,[6]; [13],39.3
same,PO2 in coronary venous blood,[6]; [14],38.9
same,PO2 in coronary venous blood,[6]; [15],32.7
same,PO2 in coronary venous blood,[6]; [16],25.0
same,PO2 in coronary venous blood,[6]; [10],17.4
same,Coronary Blood Flow Duration,[7]; 0.001 mg/kg i.v.,5 min
same,Coronary Blood Flow Increase,[7]; 0.001 mg/kg i.v.,58 Δ%
same,Mean Blood Pressure Decrease,[7]; 0.001 mg/kg i.v.,-15 ΔmmHg
same,Vertebral Blood Flow Increase,[7]; 0.001 mg/kg i.v.,20 Δ%
same,Coronary Blood Flow Duration,[7]; 0.01 mg/kg i.v.,30 min
same,Coronary Blood Flow Increase,[7]; 0.01 mg/kg i.v.,141 Δ%
same,Mean Blood Pressure Decrease,[7]; 0.01 mg/kg i.v.,-35 ΔmmHg
same,Vertebral Blood Flow Increase,[7]; 0.01 mg/kg i.v.,144 Δ%
same,Carotid blood flow Duration,[2]; 0.01 mg/Kg i.v.,30 min
same,Carotid blood flow Increase,[2]; 0.01 mg/Kg i.v.,83%
same,Mean Blood Pressure Decrease,[2]; 0.01 mg/Kg i.v.,29%
same,Regional Cerebral blood flow Duration,[2]; 0.01 mg/Kg i.v.,30 min
same,Regional Cerebral blood flow Increase,[2]; 0.01 mg/Kg i.v.,9.2 μV
same,Vertebral Blood Flow Increase,[2]; 0.01 mg/Kg i.v.,130%
same,Vertebral blood flow Duration,[2]; 0.01 mg/Kg i.v.,30 min
same,Percent inhibition against increase of blood pressure caused by norepinephrin,[8]; [11],79%
same,Percent inhibition against increase of blood pressure caused by norepinephrin,[8]; [12],78%
same,Percent inhibition against increase of blood pressure caused by norepinephrin,[8]; [13],79%
same,Percent inhibition against increase of blood pressure caused by norepinephrin,[8]; [14],77%
same,Percent inhibition against increase of blood pressure caused by norepinephrin,[8]; [15],63%
same,Percent inhibition against increase of blood pressure caused by norepinephrin,[8]; [16],48%
COC(=O)C1=C(C)NC(C)=C(C(=O)OC)C1c1ccccc1[N+](=O)[O-] [C],Carotid blood flow Duration,[2]; 0.01 mg/Kg i.v.,30 min
same,Carotid blood flow Increase,[2]; 0.01 mg/Kg i.v.,90%
same,Mean Blood Pressure Decrease,[2]; 0.01 mg/Kg i.v.,28%
same,Regional Cerebral blood flow Duration,[2]; 0.01 mg/Kg i.v.,30 min
same,Regional Cerebral blood flow Increase,[2]; 0.01 mg/Kg i.v.,8.2 μV
same,Vertebral Blood Flow Increase,[2]; 0.01 mg/Kg i.v.,120%
same,Vertebral blood flow Duration,[2]; 0.01 mg/Kg i.v.,30 min
"CCOC(=O)C1=C(C)N(CCOS(=O)(=O)[O-])C(C)=C(C(=O)OCC)C1c1cccc([N+](=O)[O-])c1.[Na+] [D, sodium β-[2,6-dimethyl-3,5-bis(ethoxycarbonyl)-4-(3-nitrophenyl)-1,4-dihydropyridine-1-yl]-ethyl sulfate]",water-solubility (in words),[3],excellent water-solubility
same,MBP,[5]; [17],110
same,MBP,"[5]; 10 mg/kg i.d., change, 1/2 hour post-administration",-11
same,MBP,"[5]; 10 mg/kg i.d., change, 1 hour post-administration",-21
same,MBP,"[5]; 10 mg/kg i.d., change, 2 hour post-administration",-32
same,MBP,"[5]; 10 mg/kg i.d., change, 3 hour post-administration",-43
same,MBP,"[5]; 10 mg/kg i.d., change, 5 hour post-administration",-4.3
same,MBP,"[5]; 10 mg/kg i.d., change, 8 hour post-administration",-40
same,PO2 in coronary venous blood,[6]; [18],34.7
same,PO2 in coronary venous blood,[6]; [19],37.2
same,PO2 in coronary venous blood,[6]; [20],39.7
same,PO2 in coronary venous blood,[6]; [21],43.3
same,PO2 in coronary venous blood,[6]; [22],43.2
same,PO2 in coronary venous blood,[6]; [23],40.0
same,PO2 in coronary venous blood,[6]; [17],17.8
same,duration time,[6]; compared with compounds B or C,much longer than those of compounds B or C
same,absorption in case of peroral administration,"[6]; peroral (intra-duodenal), compared with compounds B or C",more easily absorbed than compounds B or C
same,solubility,[9],~400 mg/mL
same,Coronary Blood Flow Duration,[7]; 0.1 mg/kg i.v.,20 min
same,Coronary Blood Flow Increase,[7]; 0.1 mg/kg i.v.,67 Δ%
same,Mean Blood Pressure Decrease,[7]; 0.1 mg/kg i.v.,-5 ΔmmHg
same,Vertebral Blood Flow Increase,[7]; 0.1 mg/kg i.v.,21 Δ%
same,Coronary Blood Flow Duration,[7]; 0.3 mg/kg i.v.,60 min
same,Coronary Blood Flow Increase,[7]; 0.3 mg/kg i.v.,72 Δ%
same,Mean Blood Pressure Decrease,[7]; 0.3 mg/kg i.v.,-12 ΔmmHg
same,Vertebral Blood Flow Increase,[7]; 0.3 mg/kg i.v.,75 Δ%
same,Coronary Blood Flow Duration,[7]; 1 mg/kg i.v.,≥ 120 min
same,Coronary Blood Flow Increase,[7]; 1 mg/kg i.v.,137 Δ%
same,Mean Blood Pressure Decrease,[7]; 1 mg/kg i.v.,-35 ΔmmHg
same,Vertebral Blood Flow Increase,[7]; 1 mg/kg i.v.,169 Δ%
same,effects on cerebral and coronary blood flow and blood pressure (in words),[7]; administered intravenously,excellent effects as increasing the cerebral blood flow and coronary blood flow and at the same time showed hypotensive activity
same,duration of activities (in words),"[7]; administered intravenously, compared with known compounds",prolonged for a long period of time when compared with known compounds
same,Percent inhibition against increase of blood pressure caused by norepinephrin,[8]; [18],69%
same,Percent inhibition against increase of blood pressure caused by norepinephrin,[8]; [19],84%
same,Percent inhibition against increase of blood pressure caused by norepinephrin,[8]; [20],89%
same,Percent inhibition against increase of blood pressure caused by norepinephrin,[8]; [21],89%
same,Percent inhibition against increase of blood pressure caused by norepinephrin,[8]; [22],85%
same,Percent inhibition against increase of blood pressure caused by norepinephrin,[8]; [23],79%
"CCOC(=O)C1=C(C)NC(C)=C(C(=O)OCC)C1c1ccccc1C(F)(F)F [E, 3,5-Dicarboethoxy-1,4-dihydro-2,6-dimethyl-4-(2-trifluoromethylphenyl)pyridine]",Coronary Blood Flow Duration,[7]; 0.001 mg/kg i.v.,10 min
same,Mean Blood Pressure Decrease,[7]; 0.001 mg/kg i.v.,-16 ΔmmHg
same,Vertebral Blood Flow Increase,[7]; 0.001 mg/kg i.v.,74 Δ%
same,Coronary Blood Flow Duration,[7]; 0.01 mg/kg i.v.,45 min
same,Mean Blood Pressure Decrease,[7]; 0.01 mg/kg i.v.,-44 ΔmmHg
same,Vertebral Blood Flow Increase,[7]; 0.01 mg/kg i.v.,144 Δ%
COc1ccc(Cc2nccc3cc(OC)c(OC)cc23)cc1OC [Papaverine],Carotid blood flow Duration,[2]; 1.0 mg/Kg i.v.,6 min
same,Carotid blood flow Increase,[2]; 1.0 mg/Kg i.v.,120%
same,Mean Blood Pressure Decrease,[2]; 1.0 mg/Kg i.v.,18%
same,Regional Cerebral blood flow Duration,[2]; 1.0 mg/Kg i.v.,7 min
same,Regional Cerebral blood flow Increase,[2]; 1.0 mg/Kg i.v.,8.2 μV
same,Vertebral Blood Flow Increase,[2]; 1.0 mg/Kg i.v.,120%
same,Vertebral blood flow Duration,[2]; 1.0 mg/Kg i.v.,6 min
"CCOC(=O)C1=C(C)N(CC(=O)O)C(C)=C(C(=O)OCC)C1c1cccc([N+](=O)[O-])c1 [sodium α-[3,5-bis(ethoxycarbonyl)-2,6-dimethyl-4-(3'-nitrophenyl)-1,4-dihydro-1-pyridinyl]acetate]",water-solubility (in words),[3],easily soluble in water
